Test results taken from paper PMC4505445 (The Journal of Biological Chemistry, 2015).
Structures can show the parent of a compound that is named as a salt.

Tests used:
[1] = molecular target: T1, human prion protein 91–231 (Homo sapiens, UniProt P04156); assay: biochemical; assay type: binding
T1 construct: gene PRNP

[2] = molecular target: T2, human prion protein 23–231 (PrP, unlabeled wild type) (Homo sapiens, UniProt P04156); assay: biochemical; assay type: binding
T2 construct: gene PRNP

SMILES	Kd [1]	IC50 [2]
COc1cc(-c2ccc(N=Nc3ccc4c(S(=O)(=O)O)cc(S(=O)(=O)O)c(N)c4c3O)c(OC)c2)ccc1N=Nc1ccc2c(S(=O)(=O)O)cc(S(=O)(=O)O)c(N)c2c1O [Chicago Sky Blue 6B]	1.43 ± 0.24 µM	
CC(C)/N=c1\cc2n(-c3ccc(Cl)cc3)c3ccccc3nc-2cc1Nc1ccc(Cl)cc1 [Clofazimine]		> 100 µM
O=C1c2c(O)cccc2Cc2cccc(O)c21 [Anthralin]		> 100 µM
NC(CO)C(=O)NNCc1ccc(O)c(O)c1O (stereo not shown) [Benserazide HCl]		> 100 µM
C[C@@H]1[C@H](O)[C@@H](C)/C=C/C=C/C=C/C=C/C=C/C=C/C=C/[C@H](O[C@@H]2O[C@H](C)[C@@H](O)[C@H](N)[C@@H]2O)C[C@@H]2O[C@](O)(C[C@@H](O)C[C@@H](O)[C@H](O)CC[C@@H](O)C[C@@H](O)CC(=O)O[C@H]1C)C[C@H](O)[C@H]2C(=O)O [Amphotericin B]		88.8 µM
CC[N+](C)(CC)CCC[n+]1c(-c2ccccc2)c2cc(N)ccc2c2ccc(N)cc21 [Propidium iodide]		> 100 µM
COc1cc(C(=O)NS(=O)(=O)c2ccccc2C)ccc1Cc1cn(C)c2ccc(NC(=O)OC3CCCC3)cc12 [Zafirlukast]		85.7 µM
